This series can be described thus: Stability of glibenclamide injection formulations on storage. The format is physicochemical. The following applies: formulation with 5 mM meglumine at pH 9.

The structures appear in SMILES notation.

Experimental: Glibenclamide stability was investigated by storing several formulations under different conditions for long periods of time. In particular, glibenclamide formulations suitable for injection were stored for up to six months and stability data for these formulations was obtained over that period of time.
This study assessed the relative stability of 4 batches of glibenclamide formulations suitable for injection. The following studies were conducted.
All storage cabinets were continually monitored for temperature and humidity using calibrated probes. After removal from long-term storage, all samples were stored at 2-8° C. protected from light while awaiting analysis.
At each time point, 2 vials of glibenclamide injections will be removed from the storage cabinet from the appropriate conditions and allowed to equilibrate to ambient temperature. This will be used to perform the analyses described above and will be stored under normal laboratory conditions throughout the duration of the analyses.
The formulations were inspected visually for appearance and for the presence of particulates. The pH of duplicate samples from separate vials was measured to determine formulation pH and to track changes, if any, over the course of time during the stability experiments.

In the case of `COc1ccc(Cl)cc1C(=O)NCCc1ccc(S(=O)(=O)NC(=O)NC2CCCCC2)cc1` [Glibenclamide, N-p-(2-[5-Chloro-2-methoxybenzamido]ethyl) benzenesulfonyl-N′-cyclohexylurea], the hydrolysis on storage result is “hydrolysis was not seen” (refrigerated samples stored at 2-8° C., FIG. 3A) and “some hydrolysis” (stored at elevated temperatures (25° C./60% RH, 40° C./75% RH), FIGS. 3B, 3C). In addition, the “physical stability (drug in solution) on storage” value (stored at 2-8° C.) is given as “remained in solution”.

Values taken from patent US10688111B2, “Liquid formulations of compounds active at sulfonylurea receptors” (Biogen Chesapeake LLC, priority 2008, dated 2020).
